# From PubChem BioAssay (NCI)
#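 1) Cells in 96-well plates. 2) Compound, 48 h, 5 concentrations. 3) Linear interpolation between surrounding doses. 4) Unreached endpoint = highest concentration. GI50 = concentration required for 50% inhibition of growth. Definition used: TGI = concentration required for complete inhibition of growth.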
# Columns and labels:
# Assay in all cases: DTP human tumour cell line panel, 48 h
# ACHN renal = tested on: ACHN renal
# SK-OV-3 ovarian = tested on: SK-OV-3 ovarian
# BT-549 breast = tested on: BT-549 breast
# CAKI-1 renal = tested on: CAKI-1 renal
# DU-145 prostate = tested on: DU-145 prostate
# HOP-92 NSCLC = tested on: HOP-92 NSCLC
# HS 578T breast = tested on: HS 578T breast
# MDA-N = tested on: MDA-N
# NCI-H522 lung = tested on: NCI-H522 lung
# PC-3 prostate = tested on: PC-3 prostate
SMILES,TGI (ACHN renal) [µM],TGI (SK-OV-3 ovarian) [µM],TGI (BT-549 breast) [µM],TGI (CAKI-1 renal) [µM],TGI (DU-145 prostate) [µM],TGI (HOP-92 NSCLC) [µM],TGI (HS 578T breast) [µM],TGI (MDA-N) [µM],TGI (NCI-H522 lung) [µM],TGI (PC-3 prostate) [µM],GI50 (ACHN renal) [µM],GI50 (BT-549 breast) [µM],GI50 (CAKI-1 renal) [µM],GI50 (DU-145 prostate) [µM],GI50 (HOP-92 NSCLC) [µM],GI50 (HS 578T breast) [µM],GI50 (NCI-H522 lung) [µM],GI50 (PC-3 prostate) [µM],GI50 (SK-OV-3 ovarian) [µM],GI50 (MDA-N) [µM]
CC1CC2=C(S(=O)(=O)c3ccccc3)CC(S(=O)(=O)c3ccccc3)(S(=O)(=O)c3ccccc3)CC21 (configuration not stated),> 100,> 100,–,–,–,–,–,–,–,–,–,–,–,–,–,–,–,–,–,–
CCOP(=O)(OCC)C(c1ccc(F)cc1)N(C(=O)NC(F)(F)F)c1cccc(C(F)(F)F)c1 (configuration not stated),> 100,> 100,> 100,> 100,> 100,98.6,> 100,> 100,> 100,> 100,–,–,–,–,–,–,–,–,–,–
COc1ccccc1CNCCCN1C(=O)c2ccc3c4c(ccc(c24)C1=O)C(=O)N(CCCNCCNCCCN)C3=O,79.8,26.3,6.43,> 100,12.5,38.8,42.9,–,3.71,80.2,4.45,2.58,21.7,3.65,6.7,5.51,1.22,5.91,4.04,–
COc1cc2oc(-c3ccc(O)cc3)c(OC)c(=O)c2c(O)c1OC,> 100,> 100,> 100,> 100,> 100,> 100,–,> 100,> 100,> 100,35.8,27.7,45.1,18.3,43.9,–,45.2,40.6,49.6,25.5
C/C(=N/NC(N)=S)c1ccc[nH]1,> 100,> 100,> 100,> 100,> 100,> 100,> 100,> 100,> 100,> 100,–,–,–,–,–,–,–,–,–,–
CCOC(=O)CNC(=O)N(CC)C12CC3CC(CC(C3)C1)C2,–,216,–,313,–,222,–,–,323,–,–,–,–,–,–,–,–,–,–,–
C[C@@H]1Nc2cc(NC(=O)OCCF)nc(N)c2N=C1c1ccccc1,> 100,–,> 100,–,–,> 100,–,< 0.0001,0.509,> 100,< 0.0001,–,< 0.0001,–,–,–,–,–,–,–
COc1ccc(S(=O)(=O)c2ccccc2[N+](=O)[O-])cc1,–,> 100,–,–,–,> 100,–,–,–,–,–,–,–,–,–,–,–,–,–,–
COCc1nc2c(OC)c(-c3nc4nc(N5CCN(C)CC5)ccc4[nH]3)cc(OC)c2n1C,57.4,> 100,> 100,> 100,> 100,> 100,> 100,> 100,86.4,63.4,–,–,–,–,–,–,–,–,–,–
Clc1ccc(C[P+](c2ccccc2)(c2ccccc2)c2ccccc2)c(Cl)c1,47.6,24.4,–,–,–,5.76,–,–,7.18,–,–,–,–,–,–,–,–,–,–,–
CCOC(=O)c1ccc(N[C@@H]2c3cc4c(cc3C(c3cc(OC)c(O)c(OC)c3)[C@H]3C(=O)OCC32)OCO4)cc1O (some centres not stated),–,2.2,–,3.26,–,7.38,–,–,2.07,–,–,–,–,–,–,–,–,–,–,–
CCOC(=O)Cn1c(=O)ccn(COCCO)c1=O,> 100,–,> 100,> 100,> 100,> 100,> 100,> 100,> 100,> 100,–,–,–,–,–,–,–,–,–,–
COCCCNc1nc(N)c(C#N)c(C#N)c1C#N,> 10,> 10,–,> 10,> 10,–,> 10,> 10,> 10,> 10,–,–,–,–,–,–,–,–,–,–
